Results reported in patent US8841301B2, “Selective NR2B antagonists” (Bristol-Myers Squibb Company, priority 2011, dated 2014).
Structures can show the parent of a compound that is named as a salt.

Target: hNR2B (Homo sapiens, UniProt Q05586+Q13224)
Test: Electrophysiology NMDA receptor experiments: two electrode voltage-clamp in Xenopus laevis oocytes expressing GluN1/GluN2 subunits
Type: cell-based
Settings: oocytes voltage clamped at −40 mV; 50 μM glutamate, 30 μM glycine; read-out: Rating (hNR2B IC50)
Protocol: Electrophysiology NMDA Receptor Experiments.
Stage V and VI oocytes were surgically removed from the ovaries of large, well-fed and healthy Xenopus laevis anesthetized with 3-amino-benzoic acid ethyl ester (3 gm/l). Clusters of isolated oocytes were incubated with 292 U/ml Worthington (Freehold, N.J.) type IV collagenase or 1.3 mg/ml collagenase (Life Technologies, Gaithersburg, Md.; 17018-029) for 2 hr in Ca^2+-free solution comprised of (in mM) 115 NaCl, 2.5 KCl, and 10 HEPES, pH 7.5, with slow agitation to remove the follicular cell layer. Oocytes were then washed in the same solution supplemented with 1.8 mM CaCl2 and maintained in Barth's solution comprised of (in mM): 88 NaCl, 1 KCl, 2.4 NaHCO3, 10 HEPES, 0.82 MgSO4, 0.33 Ca(NO3)2, and 0.91 CaCl2 and supplemented with 100 μg/ml gentamycin, 10 μg/ml streptomycin, and 10 μg/ml penicillin. Oocytes were manually defolliculated and injected within 24 hrs of isolation with 3-5 ng of human GluN1 subunit cRNA and 7-10 ng of human GluN2 cRNA subunit in a 50 nl volume, and incubated in Barth's solution at 18° C. for 2-7 d. Glass injection pipettes had tip sizes ranging from 10-20 microns, and were backfilled with mineral oil. cRNA was synthesized from linearized template cDNA for rat glutamate receptor subunits according to manufacturer specifications (Ambion).
Two electrode voltage-clamp recordings were made 2-7 days post-injection. Oocytes were placed in a dual-track plexiglass recording chamber with a single perfusion line that splits in a Y-configuration to perfuse two oocytes. Dual recordings were made at room temperature (23° C.) using two Warner OC725B two-electrode voltage clamp amplifiers, arranged as recommended by the manufacturer. Glass microelectrodes (1-10 Megaohms) were filled with 300 mM KCl (voltage electrode) or 3 M KCl (current electrode). The bath clamps communicated across silver chloride wires placed into each side of the recording chamber, both of which were assumed to be at a reference potential of 0 mV. Oocytes were perfused with a solution comprised of (in mM) 90 NaCl, 1 KCl, 10 HEPES, […] and 0.5 BaCl2; pH 7.4, adjusted by addition of NaOH. Oocytes were recorded under voltage clamp at −40 mV. Final concentrations for glutamate and glycine were 50 μM and 30 μM, respectively. Concentration-response curves for experimental compounds were obtained by applying in successive fashion maximal glutamate/glycine, followed by glutamate/glycine plus variable concentrations of experimental compounds. Dose response curves consisting of four to eight concentrations were obtained in this manner. The baseline leak current at −40 mV was measured before and after recording, and the full recording linearly corrected for any change in leak current. The level of inhibition by applied experimental compounds was expressed as a percent of the initial glutamate response, and averaged together across oocytes from multiple experiments. Results were pooled, and the average percent responses at antagonist concentrations were fit by the equation, Percent Response=(100−minimum)/(1+([conc]/IC50)^nH)+minimum where minimum is the residual percent response in saturating concentration of the experimental compounds, IC50 is the concentration of antagonist that causes half of the achievable inhibition, and nH is a slope factor describing steepness of the inhibition curve. […]
For NMDA receptor subtype selectivity experiments human GluN1/GluN2A, GluN1/GluN2C, and GluN1/GluN2D cRNAs were expressed in Xenopus laevis as described above. Here, 10 μM concentrations of the antagonist was perfused with 50 μM glutamate and 30 μM glycine onto the oocyte for two min and the remaining current in the presence of the antagonist was compared to the maximal current obtained with 50 μM glutamate and 30 μM glycine alone (defined as 100%). When IC50 determinations were made against other NMDA receptor subtypes the protocol as described above was followed. […]

Chain of hNR2B (Q13224 27-1484, other chains not shown): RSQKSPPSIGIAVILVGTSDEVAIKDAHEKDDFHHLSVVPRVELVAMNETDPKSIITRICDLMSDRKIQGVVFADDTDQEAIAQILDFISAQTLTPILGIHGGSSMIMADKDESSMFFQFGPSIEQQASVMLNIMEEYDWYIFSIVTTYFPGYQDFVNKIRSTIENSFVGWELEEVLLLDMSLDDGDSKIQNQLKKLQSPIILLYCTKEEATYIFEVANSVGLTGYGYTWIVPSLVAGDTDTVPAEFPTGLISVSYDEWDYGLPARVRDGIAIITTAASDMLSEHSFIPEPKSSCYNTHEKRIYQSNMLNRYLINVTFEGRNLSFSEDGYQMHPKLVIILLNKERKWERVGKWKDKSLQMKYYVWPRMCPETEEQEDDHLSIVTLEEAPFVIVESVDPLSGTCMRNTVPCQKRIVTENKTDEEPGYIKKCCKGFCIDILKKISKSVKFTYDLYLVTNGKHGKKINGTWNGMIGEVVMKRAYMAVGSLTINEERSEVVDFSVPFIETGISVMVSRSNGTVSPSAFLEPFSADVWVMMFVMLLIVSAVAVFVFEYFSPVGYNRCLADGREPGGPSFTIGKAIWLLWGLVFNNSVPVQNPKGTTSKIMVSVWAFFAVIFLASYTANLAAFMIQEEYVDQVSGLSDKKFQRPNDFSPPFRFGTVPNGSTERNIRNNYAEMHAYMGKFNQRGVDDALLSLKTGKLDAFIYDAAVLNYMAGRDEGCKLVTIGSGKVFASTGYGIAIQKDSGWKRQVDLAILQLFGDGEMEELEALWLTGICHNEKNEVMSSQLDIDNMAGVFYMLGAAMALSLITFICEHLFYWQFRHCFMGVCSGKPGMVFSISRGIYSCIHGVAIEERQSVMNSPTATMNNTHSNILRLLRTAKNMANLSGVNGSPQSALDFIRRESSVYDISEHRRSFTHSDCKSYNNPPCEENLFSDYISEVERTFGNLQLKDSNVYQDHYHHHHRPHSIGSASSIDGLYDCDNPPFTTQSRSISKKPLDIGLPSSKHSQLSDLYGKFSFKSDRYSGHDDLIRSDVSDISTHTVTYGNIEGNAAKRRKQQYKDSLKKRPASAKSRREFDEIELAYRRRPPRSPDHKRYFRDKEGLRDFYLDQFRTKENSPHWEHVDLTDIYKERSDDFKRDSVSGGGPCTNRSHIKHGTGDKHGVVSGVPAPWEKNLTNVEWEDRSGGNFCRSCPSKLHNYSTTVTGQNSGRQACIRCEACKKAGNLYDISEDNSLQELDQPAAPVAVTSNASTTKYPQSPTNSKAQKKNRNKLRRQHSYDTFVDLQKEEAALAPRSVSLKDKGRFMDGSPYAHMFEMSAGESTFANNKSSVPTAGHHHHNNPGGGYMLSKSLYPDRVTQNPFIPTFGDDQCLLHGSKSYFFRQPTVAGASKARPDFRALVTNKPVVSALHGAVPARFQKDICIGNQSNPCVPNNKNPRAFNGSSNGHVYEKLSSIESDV

Row | IC50 | SMILES
1 | < 0.2 µM | O=c1ccc2cc(OCc3cc(Nc4ccc(Cl)cc4)ncn3)ccc2[nH]1 [Example 96]
2 | 1 to 10 µM | O=c1ccc2cc(OCc3cc(NCc4ccc(Cl)c(Cl)c4)ncn3)ccc2[nH]1 [Example 97]
3 | 1 to 10 µM | O=c1ccc2cc(OCc3cncc(Nc4ccc(Cl)cc4)n3)ccc2[nH]1 [Example 99]
4 | 0.201 to 1 µM | O=c1ccc2cc(OCc3cncc(NCc4ccc(Cl)cc4)n3)ccc2[nH]1 [Example 100]
5 | 1 to 10 µM | O=c1ccc2cc(OCc3cncc(NCc4ccc(Cl)c(Cl)c4)n3)ccc2[nH]1 [Example 101]
6 | < 0.2 µM | O=c1ccc2cc(CCc3cnc(Nc4ccc(OC(F)(F)F)cc4)nc3)ccc2[nH]1 [Example 108]
7 | < 0.2 µM | O=c1ccc2cc(CCc3cnc(Nc4ccc(OC(F)F)cc4)nc3)ccc2[nH]1 [Example 109]
8 | < 0.2 µM | O=c1ccc2cc(C3CC3c3cnc(Nc4ccc(OC(F)F)cc4)nc3)ccc2[nH]1 (stereo not drawn) [Example 110]
9 | 1 to 10 µM | FC(F)Oc1ccc(Nc2ncc(CCc3cccc4[nH]ncc34)cn2)cc1 [Example 111]
10 | 0.201 to 1 µM | FC(F)Oc1ccc(Nc2ncc(CCc3ccc4[nH]ncc4c3)cn2)cc1 [Example 112]
11 | > 10 µM | FC(F)Oc1ccc(Nc2ncc(CCc3ccc4cn[nH]c4c3)cn2)cc1 [Example 113]
12 | > 10 µM | FC(F)Oc1ccc(Nc2ncc(CCCNc3ncccn3)cn2)cc1 [Example 114]
13 | > 10 µM | FC(F)Oc1ccc(Nc2ncc(CCCNc3ncnc4[nH]ncc34)cn2)cc1 [Example 115]
14 | > 10 µM | FC(F)Oc1ccc(Nc2ncc(C3CC3c3cccc4[nH]ncc34)cn2)cc1 (stereo not drawn) [Example 117]
15 | < 0.2 µM | CC(Cc1cnc(Nc2ccc(OC(F)F)cc2)nc1)c1ccc2[nH]c(=O)ccc2c1 (stereo not drawn) [Example 122]
16 | > 10 µM | N#Cc1n[nH]c2ccc(CCc3cnc(Nc4ccc(OC(F)F)cc4)nc3)cc12 [Example 124]
17 | 1 to 10 µM | CCc1ccc(Nc2ncc(CCc3ccc4[nH]ncc4c3)cn2)cc1F [Example 125]
18 | < 0.2 µM | CCc1ccc(Nc2ncc(CCc3ccc4[nH]c(=O)ccc4c3)cn2)cc1F [Example 126]
19 | 0.201 to 1 µM | CCc1ccc(Nc2ncc(CCc3ccc4[nH]ncc4c3)cn2)cc1 [Example 127]
20 | < 0.2 µM | Fc1cc(Nc2ncc(CCc3ccc4[nH]ncc4c3)cn2)ccc1OC(F)F [Example 128]
21 | < 0.2 µM | O=c1ccc2cc(CCc3cnc(Nc4ccc(OC(F)F)c(F)c4)nc3)ccc2[nH]1 [Example 129]
22 | < 0.2 µM | CCc1ccc(Nc2ncc(CCc3ccc4[nH]c(=O)ccc4c3)cn2)cc1 [Example 131]

Row | IC50 | SMILES
23 | < 0.2 µM | COc1ccc(Nc2ncc(CCc3ccc4[nH]c(=O)ccc4c3)cn2)cc1C [Example 132]
24 | 1 to 10 µM | FC1(F)Oc2ccc(Nc3ncc(CCc4ccc5[nH]ncc5c4)cn3)cc2O1 [Example 133]
25 | 1 to 10 µM | CCc1ccc(Nc2ncc(CCc3ccc4[nH]ncc4c3)cn2)cc1Cl [Example 134]
26 | 1 to 10 µM | CCc1ccc(Nc2ncc(CCc3ccc4[nH]c(=O)ccc4c3)cn2)cc1Cl [Example 135]
27 | > 10 µM | CC1(C)OC(=O)Nc2ccc(CCc3cnc(Nc4ccc(OC(F)F)cc4)nc3)cc21 [Example 138]
28 | < 0.2 µM | O=C1Nc2ccc(CCc3cnc(Nc4ccc(OC(F)F)cc4)nc3)cc2CO1 [Example 139]
29 | 0.201 to 1 µM | CC1(C)OC(=O)Nc2ccc(CCc3cnc(Nc4ccc(OC(F)F)c(Cl)c4)nc3)cc21 [Example 140]
30 | 1 to 10 µM | CCc1ccc(Nc2ncc(CCc3ccc4c(c3)C(C)(C)OC(=O)N4)cn2)cc1F [Example 141]
31 | 1 to 10 µM | Cc1ccc(Nc2ncc(CCc3ccc4c(c3)C(C)(C)OC(=O)N4)cn2)cc1F [Example 142]
32 | < 0.2 µM | O=C1Nc2ccc(CCc3cnc(Nc4ccc(OC(F)F)c(Cl)c4)nc3)cc2CO1 [Example 143]
33 | < 0.2 µM | CCc1ccc(Nc2ncc(CCc3ccc4c(c3)COC(=O)N4)cn2)cc1F [Example 144]
34 | < 0.2 µM | Cc1cc(Nc2ncc(CCc3ccc4c(c3)COC(=O)N4)cn2)ccc1OC(F)F [Example 145]
35 | < 0.2 µM | O=C1Nc2ccc(CCc3cnc(Nc4ccc(OC(F)F)c(F)c4)nc3)cc2CO1 [Example 146]
36 | 1 to 10 µM | Cc1cc(Nc2ncc(CCc3ccc4c(c3)C(C)(C)OC(=O)N4)cn2)ccc1OC(F)F [Example 147]
37 | 1 to 10 µM | CC1(C)OC(=O)Nc2ccc(CCc3cnc(Nc4ccc(OC(F)F)c(F)c4)nc3)cc21 [Example 148]
38 | < 0.2 µM | Cc1ccc(Nc2ncc(CCc3ccc4c(c3)COC(=O)N4)cn2)cc1F [Example 149]
39 | < 0.2 µM | Oc1ccc(CCc2cnc(Nc3ccc(OC(F)F)cc3)nc2)cc1 [Example 150]
40 | 0.201 to 1 µM | CCc1ccc(Nc2ncc(CCc3cnc4[nH]ncc4c3)cn2)cc1F [Example 151]
41 | < 0.2 µM | Fc1cc(Nc2ncc(CCc3cnc4[nH]ncc4c3)cn2)ccc1OC(F)F [Example 152]
42 | < 0.2 µM | Cc1cc(Nc2ncc(CCc3cnc4[nH]ncc4c3)cn2)ccc1OC(F)F [Example 153]
43 | < 0.2 µM | FC(F)Oc1ccc(Nc2ncc(CCc3cnc4[nH]ncc4c3)cn2)cc1 [Example 154]
44 | < 0.2 µM | O=c1ccc2cc(CCc3cnc(Nc4ccc(OC(F)F)cc4)nc3)cnc2[nH]1 [Example 155]

Same assay, conditions: oocytes voltage clamped at −40 mV; 50 μM glutamate, 30 μM glycine; read-out: hNR2B IC50

Row | IC50 | SMILES
45 | 0.036 µM | O=c1ccc2cc(OCc3cc(Nc4ccc(Cl)c(Cl)c4)ncn3)ccc2[nH]1 [Example 95, 6-((6-(3,4-dichlorophenylamino)pyrimidin-4-yl)methoxy)quinolin-2(1H)-one trifluoroacetate]
46 | > 3 µM | O=c1ccc2cc(OCc3cnc(Nc4ccc(Cl)c(Cl)c4)cn3)ccc2[nH]1 [Example 98, 6-((5-(3,4-dichlorophenylamino)pyrazin-2-yl)methoxy)quinolin-2(1H)-one]
47 | 4.6 µM | O=c1ccc2cc(Oc3ccc(NCc4ccc(OC(F)(F)F)cc4)nn3)ccc2[nH]1 [Example 102, 6-(6-(4-(trifluoromethoxy)benzylamino)pyridazin-3-yloxy)quinolin-2(1H)-one]
48 | 0.183 µM | FC(F)Oc1ccc(Nc2ncc(CCc3ccc4[nH]ncc4c3)cn2)cc1Cl [Example 104, 5-(2-(1H-indazol-5-yl)ethyl)-N-(3-chloro-4-(difluoromethoxy)phenyl)pyrimidin-2-amine]
49 | 0.0025 µM | O=c1ccc2cc(CCc3cnc(Nc4ccc(OC(F)F)c(Cl)c4)nc3)ccc2[nH]1 [Example 105, 6-(2-(2-(3-chloro-4-(difluoromethoxy)phenylamino)pyrimidin-5-yl)ethyl)quinolin-2(1H)-one]
50 | 0.035 µM | Oc1ccc(CCc2cnc(Nc3ccc(OC(F)F)cc3)nc2)cc1 [Example 107, 4-(2-(2-((4-(difluoromethoxy)phenyl)amino)pyrimidin-5-yl)ethyl)phenol]
51 | 0.135 µM | FC(F)Oc1ccc(Nc2ccc(CCc3ccc4[nH]ncc4c3)nn2)cc1 [Example 156, 6-(2-(1H-indazol-5-yl)ethyl)-N-(4-(difluoromethoxy)phenyl)pyridazin-3-amine]
